#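 The compound was tested at five concentrations on cells cultured in 96-well plates, with a 48-hour exposure period. At the TGI there is no net growth.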
# Tests used:
# Assay in all cases: inhibition of tumour cell growth, NCI panel, 48 h
# [1] = system: 786-0 renal
# [2] = system: A498 renal
# [3] = system: A549 NSCLC
# [4] = system: ACHN renal
# [5] = system: BT-549 breast
# [6] = system: CAKI-1 renal
# [7] = system: CCRF-CEM leukemia
# [8] = system: COLO 205 colon
# [9] = system: DU-145 prostate
# [10] = system: EKVX NSCLC
# [11] = system: HCC-2998 colon
# [12] = system: HCT-116 colon
# [13] = system: HCT-15 colon
# [14] = system: HL-60(TB) leukemia
# [15] = system: HOP-62 NSCLC
# [16] = system: HOP-92 NSCLC
# [17] = system: HS 578T breast
# [18] = system: HT29 colon
# [19] = system: IGROV1 ovarian
# [20] = system: K-562 leukemia
# [21] = system: KM12 colon
# [22] = system: LOX IMVI melanoma
# [23] = system: M14 melanoma
# [24] = system: MALME-3M melanoma
# [25] = system: MCF7 breast
# [26] = system: MDA-MB-231 breast
# [27] = system: MDA-MB-435
# [28] = system: MDA-N
# [29] = system: MOLT-4 leukemia
# [30] = system: NCI-H226 lung
# [31] = system: NCI-H23 lung
# [32] = system: NCI-H460 lung
# [33] = system: NCI-H522 lung
# [34] = system: NCI/ADR-RES ovarian
# [35] = system: OVCAR-3 ovarian
# [36] = system: OVCAR-4 ovarian
# [37] = system: OVCAR-5 ovarian
# [38] = system: OVCAR-8 ovarian
# [39] = system: PC-3 prostate
# [40] = system: RPMI-8226 leukemia
# [41] = system: RXF 393 renal
# [42] = system: SF-268 CNS
# [43] = system: SF-295 CNS
# [44] = system: SF-539 CNS
# [45] = system: SK-MEL-2 melanoma
# [46] = system: SK-MEL-28 melanoma
# [47] = system: SK-MEL-5 melanoma
# [48] = system: SK-OV-3 ovarian
# [49] = system: SN12C renal
# [50] = system: SNB-19 CNS
# [51] = system: SNB-75 CNS
# [52] = system: SR leukemia
# [53] = system: SW-620 colon
# [54] = system: T-47D breast
# [55] = system: TK-10 renal
# [56] = system: U251 CNS
# [57] = system: UACC-257 melanoma
# [58] = system: UACC-62 melanoma
# [59] = system: UO-31 renal
structure (smiles),measurement,setting,value
CC(=O)OC(CC(C)C)P1(=O)N(CC(C)(C)C)[C@@H]2CCCC[C@H]2N1CC(C)(C)C (stereo partly drawn),TGI,[1],23.9 µM
same,TGI,[2],19.3 µM
same,TGI,[3],18 µM
same,TGI,[4],19.3 µM
same,TGI,[5],29.2 µM
same,TGI,[6],26 µM
same,TGI,[7],> 93.3 µM
same,TGI,[8],18.2 µM
same,TGI,[9],29.4 µM
same,TGI,[10],23.5 µM
same,TGI,[11],18.3 µM
same,TGI,[12],16.2 µM
same,TGI,[13],23.4 µM
same,TGI,[14],23.1 µM
same,TGI,[15],29.9 µM
same,TGI,[16],10.7 µM
same,TGI,[17],25.3 µM
same,TGI,[18],19 µM
same,TGI,[19],24.2 µM
same,TGI,[20],23.9 µM
same,TGI,[21],24.1 µM
same,TGI,[22],25 µM
same,TGI,[23],19.8 µM
same,TGI,[24],22.8 µM
same,TGI,[25],17.4 µM
same,TGI,[26],19.7 µM
same,TGI,[27],25.3 µM
same,TGI,[28],21.3 µM
same,TGI,[29],25.3 µM
same,TGI,[30],23.2 µM
same,TGI,[31],23.1 µM
same,TGI,[32],22 µM
same,TGI,[33],19.2 µM
same,TGI,[34],22.6 µM
same,TGI,[35],23.1 µM
same,TGI,[36],23.6 µM
same,TGI,[37],22.9 µM
same,TGI,[38],21.9 µM
same,TGI,[39],13.6 µM
same,TGI,[40],15.3 µM
same,TGI,[41],18.1 µM
same,TGI,[42],29.3 µM
same,TGI,[43],20.4 µM
same,TGI,[44],22.3 µM
same,TGI,[45],19.6 µM
same,TGI,[46],28.6 µM
same,TGI,[47],21.9 µM
same,TGI,[48],30.7 µM
same,TGI,[49],24.4 µM
same,TGI,[50],21.9 µM
same,TGI,[51],20.6 µM
same,TGI,[52],30.4 µM
same,TGI,[53],29 µM
same,TGI,[54],19.7 µM
same,TGI,[55],24.7 µM
same,TGI,[56],20.1 µM
same,TGI,[57],21.4 µM
same,TGI,[58],23.3 µM
same,TGI,[59],21.2 µM
COC(=O)c1ccc(CCC2=CC(=O)C(Br)=CC2=O)cc1,TGI,[1],35.2 µM
same,TGI,[2],36.5 µM
same,TGI,[3],36.9 µM
same,TGI,[4],25.1 µM
same,TGI,[5],23.9 µM
same,TGI,[6],26.4 µM
same,TGI,[7],0.887 µM
same,TGI,[8],18.7 µM
same,TGI,[9],32 µM
same,TGI,[10],38.7 µM
same,TGI,[11],29.1 µM
same,TGI,[12],30.3 µM
same,TGI,[13],27.6 µM
same,TGI,[14],5.2 µM
same,TGI,[15],31.6 µM
same,TGI,[16],11.9 µM
same,TGI,[17],45 µM
same,TGI,[18],30.9 µM
same,TGI,[19],28.7 µM
same,TGI,[20],4.84 µM
same,TGI,[21],32.3 µM
same,TGI,[22],33.3 µM
same,TGI,[23],28.3 µM
same,TGI,[24],30.6 µM
same,TGI,[25],34.9 µM
same,TGI,[26],38.7 µM
same,TGI,[27],31.2 µM
same,TGI,[28],31.4 µM
same,TGI,[29],7.32 µM
same,TGI,[30],30.5 µM
same,TGI,[31],28.4 µM
same,TGI,[32],34.5 µM
same,TGI,[33],10.5 µM
same,TGI,[34],43.8 µM
same,TGI,[35],31.4 µM
same,TGI,[36],30.9 µM
same,TGI,[37],33.6 µM
same,TGI,[38],32 µM
same,TGI,[39],30.9 µM
same,TGI,[40],49.3 µM
same,TGI,[41],32.3 µM
same,TGI,[42],43 µM
same,TGI,[43],37.4 µM
same,TGI,[44],31.8 µM
same,TGI,[45],31.9 µM
same,TGI,[46],31.1 µM
same,TGI,[47],24.6 µM
same,TGI,[48],38 µM
same,TGI,[49],32.5 µM
same,TGI,[50],29.2 µM
same,TGI,[51],26.9 µM
same,TGI,[52],> 100 µM
same,TGI,[53],27.1 µM
same,TGI,[54],70.9 µM
same,TGI,[55],31.1 µM
same,TGI,[56],32.5 µM
same,TGI,[57],29 µM
same,TGI,[58],31.7 µM
same,TGI,[59],29.2 µM

# From PubChem BioAssay (NCI)
